Test system: YAP-TEAD interaction
Assay: SK-HEP-1 reporter assay (8xTEAD responsive elements driving NanoLuc luciferase)
Assay type: cell-based
Conditions: Homo sapiens, SK-HEP1, SK-HEP-1 reporter assay
Description: To identify inhibitors of YAP-TEAD interaction, 8×TEAD responsive elements driving the NanoLuc® luciferase gene were stably integrated into SK-HEP-1 cells (ECACC #: 91091816).
For the assay, cells were treated in duplicates with the test compounds in a 10-point dose, with the top concentration starting at 30 μM (final concentration in assay). After a 24 hour incubation at 37° C., 95% rH, and 5% CO2, a luciferase substrate/lysis reagent mix (NanoGlo™, Promega) was added to the cells, allowing the quantification of cellular luciferase activity.
Cell Media: The cells were cultured in the following media: MEM, +10% FBS, +1× GlutaMAX, +1 mM Sodium-Pyruvate, +100 μM Non-essential amino acids, +0.1 mg/ml Hygromycin. The media used for the assay was: MEM (w/o Phenol Red), +10% FBS, +1× GlutaMAX, +1 mM Sodium-Pyruvate, +100 μM Non-essential amino acids, +0.5% Pen/Strep
Reagents: The reagents used are listed below:
Cell culture: The cells were examined using an inverted microscope to check for health and cell density. To dissociate adherent cells, the monolayer of cells was washed once with pre-warmed PBS. After removing the PBS, 3 ml pre-warmed Accutase® was added to a F75 flask, dispersed evenly and the flask was allowed to sit in incubator for ˜4-5 minutes.
When a single cell suspension was obtained, 7 ml of prewarmed growth media was added and resuspended with the cells. The cell suspension was transferred to a sterile 15 ml conical centrifuge tube, and spun for 5 min at 300×g, RT. The supernatant was discarded and the pellet was resuspended in 10 ml of pre-warmed growth media.
The total cell count was determined, and 20 μl of the desired cell number was added to each well of a 384 well plate using a Multidrop Combi. The plates were then incubated for 24 hours at 37° C., 95% rH, and 5% CO2.
Compound treatment: 24 hours after seeding, the cells were treated with compounds.
A 1:333 dilution of compounds, diluted in DMSO, was made to get a final concentration of 0.3% DMSO per well. To transfer the compounds to the assay plate, 120 nl was shot from Labcyte low dead volume plates to the cell plates containing 20 μl media/well with the ECHO 555 liquid handling system.
After treatment, the cells were fed with 20 μl fresh pre-warmed assay media using a Multidrop combi.
The assay plates were then incubated for another 24 h at 37° C., 95% rH, and 5% CO2.
Luciferase readout: 24 h after treatment, the plates were taken out of the incubator and were allowed to equilibrate to RT. 30 μl of NanoGlo® reagent was added to the plates in the dark. Plates were shaken for 20 min on a Teleshake (˜1500 rpm) in the dark. The luminescence was then measured using an EnVision microplate reader. The IC50 values were generated using Genedata Screener®.

Row | IC50 [nM] | Compound
1 | 100 to 10000 | CC(C)CC(NC(=O)c1ccc2c(c1)c1cn(C)nc1n2-c1ccc(C(F)(F)F)cc1)c1nc[nH]n1 (centres unmarked) [Example B24, 2-methyl-N-[3-methyl-1-(1H-1,2,4-triazol-3-yl)butyl]-8-[4-(trifluoromethyl)phenyl]-2H,8H-pyrazolo[3,4-b]indole-5-carboxamide]
2 | 100 to 10000 | Cn1cc2c3cc(C(=O)NC4CCc5cn[nH]c5C4)ccc3n(-c3ccc(C(F)(F)F)cc3)c2n1 (centres unmarked) [Example B25, 2-methyl-N-(4,5,6,7-tetrahydro-1H-indazol-6-yl)-8-[4-(trifluoromethyl)phenyl]-2H,8H-pyrazolo[3,4-b]indole-5-carboxamide]
3 | 10 to 100 | Cn1cc2c3cc(C(=O)N(CCO)Cc4ccnn4C)ccc3n(-c3ccc(C(F)(F)F)cc3)c2n1 [Example B27, N-(2-hydroxyethyl)-2-methyl-N-[(1-methyl-1H-pyrazol-5-yl)methyl]-8-[4-(trifluoromethyl)phenyl]-2H,8H-pyrazolo[3,4-b]indole-5-carboxamide]
4 | 100 to 10000 | Cn1cc2c3cc(C(=O)NCCc4nc(C5CC5)n[nH]4)ccc3n(-c3ccc(C(F)(F)F)cc3)c2n1 [Example B28, N-[2-(3-cyclopropyl-1H-1,2,4-triazol-5-yl)ethyl]-2-methyl-8-[4-(trifluoro-methyl)phenyl]-2H,8H-pyrazolo[3,4-b]indole-5-carboxamide]
5 | > 10000 | Cn1cc2c3cc(C(=O)NCc4n[nH]c5c4CCCC5)ccc3n(-c3ccc(C(F)(F)F)cc3)c2n1 [Example B29, 2-methyl-N-[(4,5,6,7-tetrahydro-1H-indazol-3-yl)methyl]-8-[4-(trifluoromethyl)phenyl]-2H,8H-pyrazolo[3,4-b]indole-5-carboxamide]
6 | > 10000 | Cn1cc2c3cc(C(=O)N4CC(c5ocnc5CO)C4)ccc3n(-c3ccc(C(F)(F)F)cc3)c2n1 [Example B30, [5-(1-{2-methyl-8-[4-(trifluoro-methyl)phenyl]-2H,8H-pyrazolo[3,4-b]indole-5-carbonyl}azetidin-3-yl)-1,3-oxazol-4-yl]methanol]
7 | 10 to 100 | Cn1cc2c3cc(C(=O)NC(c4ncon4)C4CC4)ccc3n(-c3ccc(C(F)(F)F)cc3)c2n1 (centres unmarked) [Example B31, N-[cyclopropyl(1,2,4-oxadiazol-3-yl)methyl]-2-methyl-8-[4-(trifluoromethyl)phenyl]-2H,8H-pyrazolo[3,4-b]indole-5-carboxamide]
8 | 100 to 10000 | CC1CN(C(=O)c2ccc3c(c2)c2cn(C)nc2n3-c2ccc(C(F)(F)F)cc2)CC(CCO)O1 (centres unmarked) [Example B33, 2-(6-methyl-4-{2-methyl-8-[4-(trifluoromethyl)phenyl]-2H,8H-pyrazolo[3,4-b]indole-5-carbonyl}morpholin-2-yl)ethan-1-ol]
9 | 10 to 100 | COCC(NC(=O)c1ccc2c(c1)c1cn(C)nc1n2-c1ccc(C(F)(F)F)cc1)c1ccc(C)o1 (centres unmarked) [Example B34, N-[2-methoxy-1-(5-methylfuran-2-yl)ethyl]-2-methyl-8-[4-(trifluoromethyl)phenyl]-2H,8H-pyrazolo[3,4-b]indole-5-carboxamide]
10 | > 10000 | Cn1cc2c3cc(C(=O)N4CC(F)(F)CC4(C)CO)ccc3n(-c3ccc(C(F)(F)F)cc3)c2n1 (centres unmarked) [Example B35, (4,4-difluoro-2-methyl-1-{2-methyl-8-[4-(trifluoromethyl)phenyl]-2H,8H-pyrazolo[3,4-b]indole-5-carbonyl}pyrrolidin-2-yl)methanol]
11 | 100 to 10000 | Cn1cc2c3cc(C(=O)NC4CCCc5c4cnn5C)ccc3n(-c3ccc(C(F)(F)F)cc3)c2n1 (centres unmarked) [Example B37, 2-methyl-N-(1-methyl-4,5,6,7-tetrahydro-1H-indazol-4-yl)-8-[4-(trifluoromethyl)phenyl]-2H,8H-pyrazolo[3,4-b]indole-5-carboxamide]
12 | > 10000 | Cn1cc2c3cc(C(=O)NCCc4cc(O)n(C)n4)ccc3n(-c3ccc(C(F)(F)F)cc3)c2n1 [Example B38, N-[2-(5-hydroxy-1-methyl-1H-pyrazol-3-yl)ethyl]-2-methyl-8-[4-(trifluoromethyl)phenyl]-2H,8H-pyrazolo[3,4-b]indole-5-carboxamide]
13 | 10 to 100 | CC(NC(=O)c1ccc2c(c1)c1cn(C)nc1n2-c1ccc(C(F)(F)F)cc1)c1cc[nH]n1 (centres unmarked) [Example B39, 2-methyl-N-[1-(lH-pyrazol-5-yl)ethyl]-8-[4-(trifluoromethyl)phenyl]-2H,8H-pyrazolo[3,4-b]indole-5-carboxamide]
14 | > 10000 | Cn1cc2c3cc(C(=O)N4CCn5nccc5C4CO)ccc3n(-c3ccc(C(F)(F)F)cc3)c2n1 (centres unmarked) [Example B40]
15 | 100 to 10000 | Cn1cc2c3cc(C(=O)NCC4(N5CCOCC5)CC4)ccc3n(-c3ccc(C(F)(F)F)cc3)c2n1 [Example B42, 2-methyl-N-{[1-(morpholin-4-yl)cyclopropyl]methyl}-8-[4-(trifluoromethyl)phenyl]-2H,8H-pyrazolo[3,4-b]indole-5-carboxamide]
16 | 100 to 10000 | Cn1cc2c3cc(C(=O)NC4CCCc5[nH]ccc54)ccc3n(-c3ccc(C(F)(F)F)cc3)c2n1 (centres unmarked) [Example B44, 2-methyl-N-(4,5,6,7-tetrahydro-1H-indol-4-yl)-8-[4-(trifluoromethyl)phenyl]-2H,8H-pyrazolo[3,4-b]indole-5-carboxamide]
17 | 100 to 10000 | Cc1[nH]cnc1CNC(=O)c1ccc2c(c1)c1cn(C)nc1n2-c1ccc(C(F)(F)F)cc1 [Example B46, 2-methyl-N-[(5-methyl-1H-imidazol-4-yl)methyl]-8-[4-(trifluoromethyl)phenyl]-2H,8H-pyrazolo[3,4-b]indole-5-carboxamide]
18 | 100 to 10000 | Cn1cc2c3cc(C(=O)N4CC(O)(Cc5ccn[nH]5)C4)ccc3n(-c3ccc(C(F)(F)F)cc3)c2n1 [Example B47, 1-{2-methyl-8-[4-(trifluoromethyl)-phenyl]-2H,8H-pyrazolo[3,4-b]indole-5-carbonyl}-3-[(1H-pyrazol-5-yl)methyl]azetidin-3-ol]
19 | 100 to 10000 | Cn1cc2c3cc(C(=O)N4CCCC4C4CCCO4)ccc3n(-c3ccc(C(F)(F)F)cc3)c2n1 (centres unmarked) [Example B48, 1-{2-methyl-8-[4-(trifluoromethyl)phenyl]-2H,8H-pyrazolo[3,4-b]indole-5-carbonyl}-2-(oxolan-2-yl)pyrrolidine]
20 | 10 to 100 | COCc1ocnc1CNC(=O)c1ccc2c(c1)c1cn(C)nc1n2-c1ccc(C(F)(F)F)cc1 [Example B49, N-{[5-(methoxymethyl)-1,3-oxazol-4-yl]methyl}-2-methyl-8-[4-(trifluoromethyl)phenyl]-2H,8H-pyrazolo[3,4-b]indole-5-carboxamide]
21 | 100 to 10000 | CN(Cc1c[nH]cn1)C(=O)c1ccc2c(c1)c1cn(C)nc1n2-c1ccc(C(F)(F)F)cc1 [Example B50, N-[(1H-imidazol-4-yl)methyl]-N,2-dimethyl-8-[4-(trifluoromethyl)phenyl]-2H,8H-pyrazolo[3,4-b]indole-5-carboxamide]
22 | 100 to 10000 | COCC1CCN(C(=O)c2ccc3c(c2)c2cn(C)nc2n3-c2ccc(C(F)(F)F)cc2)C1 (centres unmarked) [Example B51, 3-(methoxymethyl)-1-{2-methyl-8-[4-(trifluoromethyl)phenyl]-2H,8H-pyrazolo[3,4-b]indole-5-carbonyl}pyrrolidine]
23 | > 10000 | Cn1cc2c3cc(C(=O)N4CCCC4c4ncc[nH]4)ccc3n(-c3ccc(C(F)(F)F)cc3)c2n1 (centres unmarked) [Example B52, 2-(1-{2-methyl-8-[4-(trifluoromethyl)phenyl]-2H,8H-pyrazolo[3,4-b]indole-5-carbonyl}pyrrolidin-2-yl)-1H-imidazole]
24 | > 10000 | Cn1cc2c3cc(C(=O)N4CCCC4Cn4cncn4)ccc3n(-c3ccc(C(F)(F)F)cc3)c2n1 (centres unmarked) [Example B54, 1-[(1-{2-methyl-8-[4-(trifluoromethyl)phenyl]-2H,8H-pyrazolo[3,4-b]indole-5-carbonyl}pyrrolidin-2-yl)methyl]-1H-1,2,4-triazole]
25 | 10 to 100 | Cn1cc2c3cc(C(=O)NC(c4cccnc4)C4CC4)ccc3n(-c3ccc(C(F)(F)F)cc3)c2n1 (centres unmarked) [Example B55, N-[cyclopropyl(pyridin-3-yl)methyl]-2-methyl-8-[4-(trifluoromethyl)phenyl]-2H,8H-pyrazolo[3,4-b]indole-5-carboxamide]
26 | > 10000 | Cn1cc2c3cc(C(=O)N4CC(O)C5(CCOCC5)C4)ccc3n(-c3ccc(C(F)(F)F)cc3)c2n1 (centres unmarked) [Example B56, 2-(2-methyl-8-[4-(trifluoromethyl)phenyl]-2H,8H-pyrazolo[3,4-b]indole-5-carbonyl}-8-oxa-2-azaspiro[4.5]decan-4-ol]

From US20230174538A1, “Tricyclic heterocycles” (Merck Patent GmbH, priority 2020, published 2023)
